Experiments:
Assay type in all cases: physicochemical
[1] = Solvent scope of N,N′-dialkylaldaramides (1%) or N,N′-dialkylpentaramides (1%): gelation/solubility behaviour in solvents; design: key: g = gelation; s = soluble; p = precipitates; c = crystallizes; ns = not soluble; v = viscous; g* = unstable gel, precipitates; cg = crystalline gel; conditions: 1% gelling agent
Source text: It will be understood that the use of the present gelling agents or thickeners to prepare a gel or to thicken a composition is also encompassed by the invention. As is well known, gelling behavior of compounds or compositions is highly unpredictable. […] Preferably, the gelling phenomenon is thermo reversible.
(§1) Preferred examples include aromatic and nonaromatic hydrocarbons, alcohols, ethers, esters, aldehydes, alkanoic acids, epoxides, amines, halogenated hydrocarbons, silicon oils, vegetable oils, phosphoric esters, sulfoxides, water and mixtures thereof. In order to obtain a gel, the gelling agent or thickener is preferably mixed with the composition to be transformed to a gel in an amount of between 0.01 and 50 wt. %, based on the weight of the composition. In a preferred embodiment, the mixture of the gelling agent or thickener and the composition is heated to allow for an even better gel formation or thickening. Typically, the heating will involve raising the temperature of the mixture to about 30-175° C. until a clear solution is obtained. In an alternative embodiment, the gelling agent is first dissolved in a polar or apolar solvent and then added to or sprayed into a composition or solvent to be converted into a gel.
Solvent scope of N,N′-dialkylaldaramides (1%) or N,N′-dialkylpentaramides (1%) 1-24 refers to the compounds prepared in Examples 1-23)

[2] = Maximum gelator concentration
Source text: Maximum gelator concentration of 5 (C6-Glu-C6) and 15 (C12-Glu-C12)

[3] = Cold gelation: addition of a solution of the gelling agent (10% in NMP, 0.05 ml) to an organic solution (0.5 ml); design: key: g = gelation; s = soluble; p = precipitates; c = crystallizes; ns = not soluble; v = viscous; g* = unstable gel, precipitates; cg = crystalline gel; conditions: for Cold gelation in 1,2-dichloroethane: 0.05 ml added to 0.5 ml 1,2-dichloroethane; for Cold gelation in Toluene: 0.05 ml added to 0.5 ml Toluene; for Cold gelation in cyclohexane: 0.05 ml added to 0.5 ml cyclohexane; for Cold gelation in methyl laurate: 0.05 ml added to 0.5 ml methyl laurate; for Cold gelation in n-butyl acetate: 0.05 ml added to 0.5 ml n-butyl acetate
Source text: as §1
Addition of a solution of the gelling agent (10% in NMP, 0.05 ml) to an organic solution (0.5 ml, “cold gelation”)

[4] = Gelation of N,N′-dialkyladaramides (1%) in mixtures of solvents; design: key: g = gelation; s = soluble; p = precipitates; c = crystallizes; ns = not soluble; v = viscous; g* = unstable gel, precipitates; cg = crystalline gel; conditions: 1% gelling agent
Source text: as §1
Gelation of N,N′-dialkyladaramides (1%) in Mixtures of Solvents

[5] = Solubility in several solvents tested (for NMR)
Procedure: Synthesis of didodecyl galactaramide. Diethyl galacterate (2.66 g, 10.0 mmol) was added to a solution of dodecylamine (3.75 g, 20.5 mmol) in EtOH (50 ml). After 72 hours stirring, the precipitate was filtered (yield 4.87 g, 8.9 mmol, 89%).
Synthesis of dicyclododecyl galactaramide. Diethyl galacterate (2.67 15 g, 10.0 mmol) was added to a solution of cyclododecylamine (3.78 g, 20.7 mmol) in EtOH (50 ml). After 48 hours stirring, the precipitate was filtered and washed with H2O and EtOH (yield 2.43 g, 4.5 mmol, 45%).

| Molecule | Gelation/solubility behaviour in 1,2-dichloroethane [1] | Gelation/solubility behaviour in 2-octanol [1] | Gelation/solubility behaviour in 2-propanol [1] | Gelation/solubility behaviour in Dimethylsulfoxide [1] | Gelation/solubility behaviour in Ethanol [1] | Gelation/solubility behaviour in Hexadecane [1] | Gelation/solubility behaviour in Water [1] | Cold gelation in 1,2-dichloroethane [3] | Cold gelation in Toluene [3] | Cold gelation in cyclohexane [3] | Cold gelation in methyl laurate [3] | Cold gelation in n-butyl acetate [3] | Gelation/solubility behaviour in Cyclohexane [1] | Gelation/solubility behaviour in Toluene [1] | Gelation/solubility behaviour in n-butylacetate [1] | Gelation/solubility behaviour in p-xylene [1] | Gelation/solubility behaviour in 2-methoxyethanol [1] | Gelation/solubility behaviour in methyl benzoic acid [1] | Gelation/solubility behaviour in methyl laurate [1] | Gelation/solubility behaviour in silicon oil [1] | further results |
| --- | --- | --- | --- | --- | --- | --- | --- | --- | --- | --- | --- | --- | --- | --- | --- | --- | --- | --- | --- | --- | --- |
| CCCCCCCCCCCCNC(=O)[C@@H](O)[C@@H](O)[C@H](O)[C@@H](O)C(=O)NCCCCCCCCCCCC [Example 12, didodecyl D-glucaramide] | p | ns | ns | s | p | ns | ns | p | p | p | p | p | ns | ns | ns | ns | – | – | – | – | Gelation in cyclohexane [4]: ns; Gelation in Dioxane [4]: c; Gelation in H2O [4]: ns; Gelation in dioxane/H2O 1:1 [4]: ns; Gelation in dioxane/H2O 1:2 [4]: ns; Gelation in dioxane/H2O 2:1 [4]: c; Gelation in dioxane/H2O 3:1 [4]: c |
| CCCCCCCCCCCCNC(=O)[C@@H](O)[C@H](O)[C@H](O)[C@@H](O)C(=O)NCCCCCCCCCCCC [Example 14, didodecyl galactaramide] | ns | ns | ns | ns | ns | ns | ns | – | – | – | – | – | ns | ns | ns | ns | – | – | – | – | Solubility in several solvents tested [5]: low solubility |
| O=C(NC1CCCCCCCCCCC1)[C@@H](O)[C@H](O)[C@H](O)[C@@H](O)C(=O)NC1CCCCCCCCCCC1 [Example 17, dicyclododecyl galactaramide] | ns | ns | ns | ns | ns | ns | ns | – | – | – | – | – | ns | ns | ns | ns | ns | ns | ns | ns | Solubility in several solvents tested [5]: low solubility |
| di-8-pentadecyl D-glucaramide [Example 18] | s | s | s | s | s | s | p | s | s | s | s | s | s | s | s | s | s | s | s | s | – |
| dicyclohexyl galactaramide [Example 7] | ns | ns | c | c | c | ns | ns | – | – | – | – | – | ns | ns | ns | ns | – | – | – | – | – |

The next lines start with results.

| Gelation/solubility behaviour in 1,2-dichloroethane [1] | Gelation/solubility behaviour in 2-octanol [1] | Gelation/solubility behaviour in 2-propanol [1] | Gelation/solubility behaviour in Dimethylsulfoxide [1] | Gelation/solubility behaviour in Ethanol [1] | Gelation/solubility behaviour in Hexadecane [1] | Gelation/solubility behaviour in Water [1] | Cold gelation in 1,2-dichloroethane [3] | Cold gelation in Toluene [3] | Cold gelation in cyclohexane [3] | Cold gelation in methyl laurate [3] | Cold gelation in n-butyl acetate [3] | Gelation/solubility behaviour in Cyclohexane [1] | Gelation/solubility behaviour in Toluene [1] | Gelation/solubility behaviour in n-butylacetate [1] | Gelation/solubility behaviour in p-xylene [1] | Gelation/solubility behaviour in 2-methoxyethanol [1] | Gelation/solubility behaviour in methyl benzoic acid [1] | Gelation/solubility behaviour in methyl laurate [1] | Gelation/solubility behaviour in silicon oil [1] | Molecule | further results |
| --- | --- | --- | --- | --- | --- | --- | --- | --- | --- | --- | --- | --- | --- | --- | --- | --- | --- | --- | --- | --- | --- |
| cg | cg | cg | cg | cg | ns | ns | c | c | p | c | c | – | – | – | – | – | – | – | – | O=C(NC1CCCCC1)[C@@H](O)[C@@H](O)[C@H](O)[C@@H](O)C(=O)NC1CCCCC1 [Example 5, dicyclohexyl D-glucaramide] | Maximum gelator concentration in 1,2-dichloroethane ([2]; 1,2-dichloroethane): <5%; Maximum gelator concentration in Toluene ([2]; Toluene): <2.5%; Maximum gelator concentration in cyclohexane ([2]; cyclohexane): <5%; Maximum gelator concentration in methyl laurate ([2]; methyl laurate): <2.5%; Maximum gelator concentration in n-butylacetate ([2]; n-butylacetate): <2.5%; Maximum gelator concentration in silicon oil (Dow Corning 702) ([2]; silicon oil (Dow Corning 702)): <2.5% |
| s | s | s | s | s | p | c | – | – | – | – | – | g* | p | p | p | – | – | – | – | CC(C)=CCCC(C)CCNC(=O)[C@@H](O)[C@@H](O)[C@H](O)[C@@H](O)C(=O)NCCC(C)CCC=C(C)C (stereo partly drawn) [Example 11, dicitronellyl D-glucaramide] | Gelation in cyclohexane [4]: g*; Gelation in Dioxane [4]: s; Gelation in H2O [4]: c; Gelation in cyclohexane/dioxane 1:1 ([4]; cyclohexane/dioxane 1:1): s; Gelation in dioxane/H2O 1:1 [4]: p; Gelation in dioxane/H2O 1:2 [4]: p; Gelation in dioxane/H2O 2:1 [4]: s; Gelation in dioxane/H2O 3:1 [4]: s |
| p | p | p | p | p | ns | – | – | – | – | – | – | g | p | p | p | – | – | – | – | CO[C@@H]([C@H](O)[C@H](O)C(=O)NC1CCCCCCCCCCC1)[C@@H](O)C(=O)NC1CCCCCCCCCCC1 [Example 22, 3-O-methyl-dicyclododecyl D-glucaramide] | – |
| – | – | – | – | – | – | – | – | – | – | – | – | p | – | p | p | p | p | p | v | O=C(NC1CCCCC1)[C@@H](O)[C@@H](O)[C@H](O)[C@@H](O)C(=O)NC1CCCCCCCCCCC1 [Example 23, N1-cyclododecyl, N6-cyclohexyl D-glucaramide] | – |

Reference: patent US6930203B2, “Gelling agents or thickeners” (Applied NanoSystems B.V., priority 2001, dated 2005)
